{"source": "patent US8552013B2", "about": "“Heterocyclic compounds based on N6-substituted adenine, methods of their preparation, their use for preparation of drugs, cosmetic preparations and growth regulators, pharmaceutical preparations, cosmetic preparations and growth regulators containing these compounds” (USTAV Experimentalni Botaniky Akademie Ved Ceske Republiky, priority 2001, dated 2013)", "format_in_all_cases": "cell-based", "key": {"Human lymphocytes": {"tested_on": "Human lymphocytes", "test": "Immunosuppressive activity, 3H-thymidine incorporation in concanavalin A activated lymphocytes", "settings": "Lymphocyte, 72 hours, [3H]-TdR, read-out: Human lymphocytes ED50", "source_text": "One of the most important parameters of specific cellular immunity is proliferative response of lymphocytes to antigens or polyclonal mitogens. The majority of normal mammalian peripheral lymphocytes comprise resting cells. Antigens or nonspecific polyclonal mitogens have the capacity to activate lymphoid cells and this is accompanied by dramatic changes of intracellular metabolism (mitochondrial activity, protein synthesis, nucleic acids synthesis, formation of blastic cells and cellular proliferation). […] Variety of in vitro assays was developed to measure proliferative response of lymphocytes. The most commonly used is ^3H-thymidine incorporation method.\nDuring cell proliferation, DNA has to be replicated before the cell is divided into two daughter cells. This close association between cell doublings and DNA synthesis is very attractive for assessing cell proliferation. If labelled DNA precursors are added to the cell culture, cells that are about to divide incorporate the labelled nucleotide into their DNA. Traditionally, those assays usually involve the use of radiolabelled nucleosides, particularly tritiated thymidine ([^3H]-TdR). The amount of [^3H]-TdR incorporated into the cellular DNA is quantified by liquid scintillation counting.\nHuman heparinized peripheral blood was obtained from healthy volunteers by cubital vein punction. The blood was diluted in PBS (1:3) and mononuclear cells were separated by centrifugation in Ficoll-Hypaque density gradient (Pharmacia, 1.077 g/ml) at 2200 rpm for 30 minutes. Following centrifugation, lymphocytes were washed in PBS and resuspended in cell culture medium (RMPI 1640, 2 mM glutamine, 100 U/ml penicillin, 100 μg/ml streptomycin, 10% fetal calf serum and sodium bicarbonate).\nThe cells were diluted at target density of 1,100,000 cells/ml were added by pipette (180 μl) into 96/well microtiter plates. Four-fold dilutions of the intended test concentration were added at time zero in 20 μl aliquots to the microtiter plate wells. Usually, test compound was evaluated at six 4-fold dilutions. In routine testing, the highest well concentration was 266.7 μM. All drug concentrations were examined in duplicates. All wells with exception of unstimulated controls were activated with 50 μl of concanavalin A (25 μg/ml). Incubations of cells with test compounds lasted for 72 hours at 37° C., in 5% CO2 atmosphere and 100% humidity. At the end of incubation period, the cells were assayed by using the [^3H]-TdR:\nCell cultures were incubated with 0.5 μCi (20 μl of stock solution 500 μCi/ml) per well for 6 hours at 37° C. and 5% CO2. The automated cell harvester was used to lyse cells in water and adsorb the DNA onto glass-fiber filters in the format of microtiter plate. The DNA incorporated [^3H]-TdR was retained on the filter while unincorporated material passes through. The filters were dried at room temperature overnight, sealed into a sample bag with 10-12 ml of scintillant. The amount of [^3H]-TdR present in each filter (in cpm) was determined by scintillation counting in a Betaplate liquid scintillation counter. The effective dose of immunosuppressant (ED) was calculated using the following equation: ED=(CCPMdrug exposed well/mean CCPMcontrol wells)×100%. The ED50 value, the drug concentration inhibiting proliferation of 50% of lymphocytes, was calculated from the obtained dose response curves."}, "[1]": {"tested_on": "human diploid fibroblasts (HCA cells)", "test": "Senescence, beta-galactosidase staining of human diploid fibroblasts", "settings": "for SENESCENT CELLS (%) HCA25: passage 25; for SENESCENT CELLS (%) HCA45: passage 45; for SENESCENT CELLS (%) HCA80: passage 80", "how_it_was_run": "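HCA fibroblasts at passages 25, 45 and 80 were fixed for 5 min at room temperature in 2% formaldehyde/0.2% glutaraldehyde. They were then incubated at 37 °C without CO2 for 1 to 16 hours with X-gal 1 mg/ml, 5 mM ferri- and ferrocyanide and 2 mM MgCl2 in citric/phosphate buffer, pH 6.0. Blue-stained cells were scored.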"}, "G-361": {"tested_on": "G-361", "test": "Calcein AM cytotoxicity, G-361", "settings": "read-out: IC 50, G-361"}, "B16-F0 melanoma": {"tested_on": "B16-F0 melanoma", "test": "Calcein AM cytotoxicity, B16-F0", "settings": "Mus musculus, B16F0, 72 h, read-out: IC 50, B16-F0", "how_it_was_run": "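Cells pre-incubated 24 hours, then exposed for 72 hours at 37° C. to six 4-fold compound dilutions in duplicate, top well concentration usually 266.7 μM. Viability read by Calcein AM fluorescence after 1 hour; GI50 taken from dose-response curves of survival relative to control wells.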"}}, "note": "Where two headings read alike, the source gives them in different places.", "data": [{"smiles": "Fc1cccc(CNc2ncnc3nc[nH]c23)c1", "note": "[6-(3-fluorobenzylamino)purine]", "values": [{"measurement": "EC50", "setting": "Human lymphocytes", "result": 18.2, "unit": "µM"}, {"measurement": "SENESCENT CELLS (%) HCA25", "setting": "[1]", "result": 3, "unit": "%"}, {"measurement": "SENESCENT CELLS (%) HCA45", "setting": "[1]", "result": 3, "unit": "%"}, {"measurement": "SENESCENT CELLS (%) HCA80", "setting": "[1]", "result": 15, "unit": "%"}]}, {"smiles": "Ic1cccc(CNc2ncnc3nc[nH]c23)c1", "note": "[6-(3-iodobenzylamino)purine]", "values": [{"measurement": "IC50", "setting": "G-361; Homo sapiens, G-361, 72 hours", "result": "> 167", "unit": "µM"}]}, {"smiles": "Cc1ccccc1CNc1ncnc2nc[nH]c12", "note": "[6-(2-methylbenzylamino)purine]", "values": [{"measurement": "IC50", "setting": "G-361; Homo sapiens, G-361, 72 hours", "result": "> 167", "unit": "µM"}]}, {"smiles": "Fc1ccccc1CNc1ncnc2nc[nH]c12", "note": "[6-(2-fluorobenzylamino)purine]", "values": [{"measurement": "IC50", "setting": "G-361; 72 hours", "result": 106, "unit": "µM"}, {"measurement": "EC50", "setting": "Human lymphocytes", "result": 2.5, "unit": "µM"}, {"measurement": "SENESCENT CELLS (%) HCA25", "setting": "[1]", "result": 4, "unit": "%"}, {"measurement": "SENESCENT CELLS (%) HCA45", "setting": "[1]", "result": 3, "unit": "%"}, {"measurement": "SENESCENT CELLS (%) HCA80", "setting": "[1]", "result": 16, "unit": "%"}]}, {"smiles": "COc1cccc(CNc2ncnc3nc[nH]c23)c1", "note": "[6-(3-methoxybenzylamino)purine]", "values": [{"measurement": "IC50", "setting": "B16-F0 melanoma", "result": 41.5, "unit": "µM"}]}, {"smiles": "Cc1ccc(CNc2ncnc3nc[nH]c23)cc1", "note": "[6-(4-methylbenzylamino)purine]", "values": [{"measurement": "IC50", "setting": "G-361; Homo sapiens, G-361, 72 hours", "result": 160, "unit": "µM"}]}, {"smiles": "Oc1ccccc1CNc1ncnc2nc[nH]c12", "note": "[ortho-topolin, 6-(2-hydroxybenzylamino)purine]", "values": [{"measurement": "IC50", "setting": "B16-F0 melanoma", "result": 150, "unit": "µM"}, {"measurement": "SENESCENT CELLS (%) HCA25", "setting": "[1]", "result": 3, "unit": "%"}, {"measurement": "SENESCENT CELLS (%) HCA45", "setting": "[1]", "result": 4, "unit": "%"}, {"measurement": "SENESCENT CELLS (%) HCA80", "setting": "[1]", "result": 17, "unit": "%"}]}, {"smiles": "Oc1cccc(CNc2ncnc3nc[nH]c23)c1", "note": "[meta-topolin, 6-(3-hydroxybenzylamino)purine]", "values": [{"measurement": "IC50", "setting": "B16-F0 melanoma", "result": 90.6, "unit": "µM"}, {"measurement": "EC50", "setting": "Human lymphocytes", "result": 5.6, "unit": "µM"}, {"measurement": "SENESCENT CELLS (%) HCA25", "setting": "[1]", "result": 5, "unit": "%"}, {"measurement": "SENESCENT CELLS (%) HCA45", "setting": "[1]", "result": 3, "unit": "%"}, {"measurement": "SENESCENT CELLS (%) HCA80", "setting": "[1]", "result": 22, "unit": "%"}]}]}
